What all share (format): in vivo, human
For one experiment, the system named is periodontal diseases. Put plainly: Topical treatment of periodontal diseases (patient cases). From the text: To do this, threads or so-called chips impregnated with solutions or gelatinous preparations of the compounds of formula (I) or formula (II) are inserted in the gingival pocket. A possible alternative is to use medicament carriers in the form of trays covering the teeth and gingiva. Before they are applied, the gelatinous applications of the compounds of formula (I) or formula (II) are instilled into the gingival pockets. In addition, the gel containing the compounds of formula (I) or formula (II) can also be placed in the medicament carrier. This use of medicament carriers is advantageous because the treatment time can be reduced by the rapid onset of action to about 15 to 30 minutes, so the treatment can be carried out directly in the surgery. The compounds of formula (I) or formula (II) can be used in concentrations of 0.005 mg/ml to 200 mg/ml. Preferred concentrations are those ranging from 0.5 mg/ml to 200 mg/ml and particularly preferred concentrations are those ranging from 10 to 150 mg/ml. Periodontal diseases can also be treated by administering the compounds of formula (I) or formula (II) by intraligamental injection, it being possible to use concentrations ranging from 0.005 mg/ml to 200 mg/ml, preferably from 0.5 mg/ml to 200 mg/ml. For the antibiotics commonly used nowadays, such as tetracyclines, an intraligamental injection is not reasonable since these compounds with a predominantly bacteriostatic action are quickly washed out due to the rapid fluid exchange in the periodontal interstice, and cannot develop their action. Tetra-cyclines can therefore only develop their effects via depot formulations. By contrast, the compounds of formula (I) or formula (II) have a very rapid and also bactericidal action, so their residence time in the periodontal interstice is sufficient to destroy the microbes.

The next experiment deals with osseomucosal wounds. The experiment in a line: Topical treatment of osseomucosal wounds (patient cases). An excerpt:
Application is effected by flushing and/or by means of strip inserts impregnated with compounds of formula (I) or formula (II). They are to be used for example for postoperative infections following dentosurgical interventions (extractions). For this purpose the gel containing the compound of formula (I) or formula (II) is syringed directly into the extraction wound or onto a collagen sponge which remains in the extraction wound. The wound is closed for about half an hour by biting on a tampon. Prophylactic applications have been particularly successful after the extraction of teeth with focal infections, Liquid forms of administration suitable for flushing fistulae are those containing the compounds of formula (I) or formula (II) in concentrations of 0.005 mg/ml to 250 mg/ml. Preferred concentrations are those ranging from 0.5 to 100 mg/ml, Forms suitable for coating strips are gels containing the compounds of formula (I) or formula (II), as well as aqueous solutions or suspensions. These applications can contain the compounds of formula (I) or formula (II) in concentrations of 0.005 mg/ml to 200 mg/ml. Preferred concentrations for solutions are those ranging from 0.1 to 50 mg/ml Gelatinous forms of administration in concentrations of 25-150 mg/ml are preferred in the case of strip inserts.

For another experiment, the system named is dentin wounds. The experiment in a line: Prophylaxis of dentin wounds (patient cases). An excerpt:
For this reason, after removal of the carious regions, the compounds of formula (I) or formula (II) are applied to the prepared cavities and rubbed in. Said compounds are applied in the form of solutions, gels or suspensions to form a local depot with an antibiotic action before the reliner is placed on and/or in the fundament of the inlays, onlays, crowns or bridges. […] A further advantage is that the tubule structure is not modified or denatured here, as is frequently the case with the current procedures using dentin protecting agents and impregnating agents. The microbe-free conditions achieved in this way have a permanent beneficial effect on prosthetic procedures since dentin hypersensitivities and subsequently secondary caries are effectively avoided.
The application of the compounds of formula (I) or formula (II) can either replace or complement the disinfecting treatment with hydrogen peroxide. The compounds of formula (I) or formula (II) can be applied in dissolved form or as a gel, optionally in the presence of solubilizers to promote a deep penetration of the chemotherapeutic agents into the dentinal tubules. Gels are used in the provisional care of dentin wounds and solutions are preferably used before the definitive fixing of e.g. crowns and bridges. The solutions or gels of the chemotherapeutic agents used are applied to the prepared dentin surfaces and gently rubbed in. Residues are then removed, for example with a cotton wool swab or air jet. Inlays, onlays, crowns or bridges can then be fixed. The compounds of formula (I) or formula (II) can be used in concentrations of 0.005 mg/ml to 200 mg/ml. Preferred concentrations are those ranging from 0.5 mg/ml to 150 mg/ml and particularly preferred concentrations are those ranging from 10 to 100 mg/ml.

SMILES strings stand for the structures. Structures can show the parent of a compound that is named as a salt.

For `COc1c(N2C[C@@H]3CCCN[C@@H]3C2)c(F)cc2c(=O)c(C(=O)O)cn(C3CC3)c12` [moxifloxacin hydrochloride, 1-cyclopropyl-6-fluoro-1,4-dihydro-8-methoxy-7-[(4aS,7aS)-octahydro-6H-pyrrolo[3,4-b]pyridin-6-yl]-4-oxo-3-quinolinecarboxylic acid], the “clinical finding at check-up” value was “patient symptom-free, gingival regions and pockets inflammation-free” in the experiment on periodontal diseases (Patient B 1, teeth 26 and 27 marginal periodontitis, thread insert gel 50 mgn/ml, check-up after 3 days); “patient symptom-free, gingival regions and pockets inflammation-free” in the experiment with periodontal diseases (Patient B 2, teeth 14 to 18 severe marginal periodontitis, thread insert gel 50 mg/ml, check-up after 4 days); “patient symptom-free, gingival regions and pockets inflammation-free” in the experiment with periodontal diseases (Patient B 3, teeth 24 to 28 marginal periodontitis, thread insert 50 mg/ml, check-up after 5 days); “patient symptom-free, no more inflammatory phenomena present” with periodontal diseases (Patient B 4, marginal periodontitis entire upper and lower jaw, medicinal splint gel 0.25 mg/ml 10 minutes/day for 4 days, check-up after 3 days); “patient symptom-free, gingival regions and pockets inflammation-free” in the experiment on periodontal diseases (Patient B 5, tooth 37 marginal periodontitis, thread insert gel 50 mg/ml, check-up after 8 days); “patient symptom-free, gingival regions and pockets inflammation-free” with periodontal diseases (Patient B 6, teeth 25-28 severe marginal periodontitis, thread insert gel 50 mg/ml + intraligamental injection 50 mg/ml, check-up after 10 days). Also, the “clinical finding at check-up” value in the experiment with osseomucosal wounds (Patient C 1, wound care after extraction, depot of gel 50 mg/ml by gauze strip, check-up after 3 days) is reported as “patient symptom-free, good wound margin adaptation”; in the experiment with osseomucosal wounds (Patient C 2, regio 36 fistulation, incision, flushing solution 50 mg/ml + strip insert gel 50 mg/ml, check-up after 3 days) it was “patient symptom-free, good rapid healing process”; in the experiment with osseomucosal wounds (Patient C 3, teeth 26 and 46 apical granulomas, extraction (osteotomy), gauze with gel 50 mg/ml, check-up after 2 days) it was “patient symptom-free”; with osseomucosal wounds (Patient C 4, gauze with gel 50 mg/ml, check-up after one week), “good wound margin adaptation, patient symptom-free”; with osseomucosal wounds (Patient C 4, tooth 48 osteotomy, gauze with gel 50 mg/ml, check-up after 2 days) it was “slight wound pain, no postoperative oedema”; in the experiment with osseomucosal wounds (Patient C 5, after root canal filling, check-up after 3 weeks), “patient symptom-free”. The “clinical finding at check-up” value was “good healing process, patient symptom-free” in the experiment on osseomucosal wounds (Patient C 5, tooth 34 pulpitis purulenta, fistulation, flushing solution 50 mg/ml + canal insert and gauze insert gel 50 mg/ml, check-up after 3 days); “patient symptom-free, good wound margin adaptation” in the experiment on osseomucosal wounds (Patient C 6, tooth 36 wound care after extraction, depot of gel 50 mg/ml by gauze strips, check-up after 3 days); “patient symptom-free, good healing process” in the experiment with osseomucosal wounds (Patient C 7, tooth 22 root tip resection due to cyst, strip insert gel 50 mg/ml, check-up after 3 days); “patient symptom-free” in the experiment with osseomucosal wounds (Patient C 9, same combined treatment, after root canal filling, check-up after 2 weeks); “patient symptom-free” in the experiment with osseomucosal wounds (Patient C 9, tooth 14 pulpitis purulenta, fistulation, moxifloxacin hydrochloride solution 25 mg/ml flushing + grepafloxacin gel 25 mg/ml canal insert + moxifloxacin hydrochloride gel 25 mg/ml gauze insert, check-up after 6 days); “patient symptom-free” with dentin wounds (Patient A 2.1, teeth 33 and 36 prepared for bridge, solution 25 mg/ml to cavity, check-up after 3 weeks). The “clinical finding at check-up” value is reported as “teeth vital, patient symptom-free” in the experiment with dentin wounds (Patient A 2.2, solution 50 mg/ml, after final filling, check-up after 4 weeks); “teeth symptom-free” in the experiment with dentin wounds (Patient A 2.2, teeth 22, 23, 24, smear with solution 50 mg/ml, check-up after 2 weeks); “patient symptom-free” with dentin wounds (Patient A 2.3, teeth 14-17 cervical erosions, smear with solution 50 mg/m, check-up after 3 weeks); “patient symptom-free” with dentin wounds (Patient A 2.4, teeth 11, 12, 21, 22 prepared for crowns, smear with solution 25 mg/ml, check-up after 3 weeks); “patient symptom-free” with dentin wounds (Patient A 2.5, tooth 44, smear with solution 25 mg/ml, check-up after 9 days).

The values are drawn from patent US8975275B2, “Use of chemotherapeutic agents” (priority 1999, dated 2015).
